From ChEMBL document CHEMBL5316291 (J Med Chem, 2023)
The source made the active and inactive calls. No cut-off for these calls is given here.

Tests used:
CT26 [1] = assay: Antitumor activity against mouse CT26 cells implanted in BALB/c mouse assessed as decrease in Ki-67 expression at 25 to 100 mg/kg, po bid measured for 14 days by immunohistochemistry analysis; assay type: functional, organism-based; settings: dose 25-100 mg/kg, time 14.0 day
CT26 [2] = assay: Antitumor activity against mouse CT26 cells implanted in BALB/c mouse assessed as tumor cell agglutination at 25 to 100 mg/kg, po bid measured for 14 days by hematoxylin and eosin staining based fluorescence microscopic analysis; assay type: functional, organism-based; settings: dose 25-100 mg/kg, time 14.0 day
[3] = molecular target: T1, Poly [ADP-ribose] polymerase tankyrase-1 (Homo sapiens, UniProt O95271); assay: Inhibition of human recombinant N-terminal GST-tagged PARP5a (1001 to 1327 end residues) expressed in baculovirus infected Sf9 cells expression system incubated for 1 hr by ELISA assay
T1 sequence (O95271 whole entry): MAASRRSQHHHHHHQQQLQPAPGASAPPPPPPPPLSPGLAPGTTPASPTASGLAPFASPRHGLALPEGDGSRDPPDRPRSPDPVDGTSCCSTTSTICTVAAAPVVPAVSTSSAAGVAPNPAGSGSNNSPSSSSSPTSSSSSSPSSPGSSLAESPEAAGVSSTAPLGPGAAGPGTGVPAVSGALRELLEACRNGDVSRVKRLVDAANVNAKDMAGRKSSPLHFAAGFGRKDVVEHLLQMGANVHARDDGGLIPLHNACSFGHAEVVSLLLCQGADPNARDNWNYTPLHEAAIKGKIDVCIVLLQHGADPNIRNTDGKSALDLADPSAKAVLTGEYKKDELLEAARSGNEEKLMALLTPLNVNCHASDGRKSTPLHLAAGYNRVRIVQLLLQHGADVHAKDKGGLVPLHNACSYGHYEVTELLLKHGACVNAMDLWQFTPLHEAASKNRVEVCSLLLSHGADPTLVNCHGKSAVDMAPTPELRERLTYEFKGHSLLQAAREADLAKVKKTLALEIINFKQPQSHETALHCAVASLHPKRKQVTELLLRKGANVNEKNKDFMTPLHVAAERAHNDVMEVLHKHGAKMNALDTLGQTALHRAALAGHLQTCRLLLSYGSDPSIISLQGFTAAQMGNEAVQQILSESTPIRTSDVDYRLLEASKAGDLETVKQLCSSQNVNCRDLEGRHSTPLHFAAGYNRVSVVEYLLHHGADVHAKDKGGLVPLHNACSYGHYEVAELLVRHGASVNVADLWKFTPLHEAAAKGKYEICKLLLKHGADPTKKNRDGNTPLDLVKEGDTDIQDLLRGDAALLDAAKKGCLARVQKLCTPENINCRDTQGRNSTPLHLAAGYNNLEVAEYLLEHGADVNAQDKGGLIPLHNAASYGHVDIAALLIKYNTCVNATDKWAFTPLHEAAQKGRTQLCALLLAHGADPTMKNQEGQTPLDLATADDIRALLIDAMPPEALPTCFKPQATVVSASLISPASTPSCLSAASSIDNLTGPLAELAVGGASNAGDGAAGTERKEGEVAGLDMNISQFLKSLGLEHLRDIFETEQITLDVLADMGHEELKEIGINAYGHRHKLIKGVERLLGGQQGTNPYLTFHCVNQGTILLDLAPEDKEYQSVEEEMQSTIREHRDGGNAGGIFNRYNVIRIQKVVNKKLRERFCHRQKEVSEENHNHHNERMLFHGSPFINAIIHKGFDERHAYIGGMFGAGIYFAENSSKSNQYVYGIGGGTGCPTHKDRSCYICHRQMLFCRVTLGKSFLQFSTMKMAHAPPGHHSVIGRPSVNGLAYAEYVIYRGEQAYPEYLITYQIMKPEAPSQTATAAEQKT

CT26 [4] = assay: Antitumor activity against mouse CT26 cells implanted in po dosed BALB/c mouse assessed as increase in CXCL10 levels at 100 mg/kg measured after 14 days by RT-qPCR analysis; assay type: functional, organism-based; settings: time 14.0 day
CT26 [5] = assay: Antitumor activity against mouse CT26 cells implanted in BALB/c mouse assessed as tumor cell contraction at 25 to 100 mg/kg, po bid measured for 14 days by hematoxylin and eosin staining based fluorescence microscopic analysis; assay type: functional, organism-based; settings: dose 25-100 mg/kg, time 14.0 day
NCI-H1373 = assay: cells; settings: Homo sapiens, NCI-H1373, 144 h
[6] = Clearance in ICR mouse at 10 mg/kg, po measured upto 24 hrs by LC-MS/MS analysis; assay type: ADME, organism-based; settings: in vivo
[7] = Toxicity in BALB/c mouse implanted with mouse CT26 cells assessed as liver damage at 100 mg/kg, po measured for 14 days by hematoxylin and eosin staining based fluorescence microscopic analysis; assay type: organism-based; settings: in vivo, 336 h, time 14 day
CT26 [8] = assay: cells; settings: Mus musculus, CT26, 144 h
CT26 [9] = assay: Antitumor activity against mouse CT26 cells implanted in BALB/c mouse assessed as nuclear chromatin margination at 25 to 100 mg/kg, po bid measured for 14 days by hematoxylin and eosin staining based fluorescence microscopic analysis; assay type: functional, organism-based; settings: dose 25-100 mg/kg, time 14.0 day
CT26 [10] = assay: Antitumor activity against mouse CT26 cells implanted in po dosed BALB/c mouse assessed as increase in IFN-beta levels at 100 mg/kg measured after 14 days by RT-qPCR analysis; assay type: functional, organism-based; settings: time 14.0 day
[11] = Toxicity in BALB/c mouse implanted with mouse CT26 cells assessed as change in body weight at 25 to 100 mg/kg, po measured for 14 days; assay type: organism-based; settings: in vivo, 336 h, dose 25-100 mg/kg, time 14 day
[12] = Toxicity in BALB/c mouse implanted with mouse CT26 cells assessed as kidney damage at 100 mg/kg, po measured for 14 days by hematoxylin and eosin staining based fluorescence microscopic analysis; assay type: organism-based; settings: in vivo, 336 h, time 14 day

C[C@@H](CN1CC(C(=O)N2CCN(c3ncc(C(F)(F)F)cn3)CC2)C1)Nc1cn[nH]c(=O)c1C(F)(F)F
Activity (CT26 [1]): Active | Activity (CT26 [2]): Active | IC50 [3]: 174 nM | Activity (CT26 [4]): Active | Activity (CT26 [5]): Active | IC50 (NCI-H1373): 1090 nM | CL/F [6]: 30.3 mL/min/kg | Activity [7]: Non-Toxic | IC50 (CT26 [8]): 19500 nM | Activity (CT26 [9]): Active | Activity (CT26 [10]): Active | Activity [11]: Non-Toxic | Activity [12]: Non-Toxic
